Test results: patent EP0054589B1, “Organic phosphoric acid ester derivatives, a process for preparing the same and insecticidal, miticidal or nematocidal compositions containing the same” (priority 1980, dated 1982)

Tests used:
rice stem borer = assay: Insecticidal effect on rice stem borer, 3rd-instar larvae (rice seedling dip); assay type: in vivo, Chilo suppressalis; settings: after 72 hours, 25°C
Method: (A) A wettable powder prepared as described in Formulation Example 5 was diluted with water to a predetermined concentration. Rice seedlings were dipped into the dilute solution and placed in a 60 ml volume cup made of vinyl chloride resin, and 10 3rd-instar larvae of rice stem borer were put in each cup. The cups were capped and maintained at 25°C.
(B) A wettable powder prepared as described in Formulation Example 7 was diluted with water to a predetermined concentration. Rice seedlings were dipped into the dilute solution and placed in a 60 ml volume cup made of vinyl chloride resin, and 10 3rd-instar larvae of rice stem borer were put in each cup. The cups were capped and maintained at 25°C.

tobacco cutworm [1] = assay: Insecticidal effect on tobacco cutworm (cabbage leaf dip); assay type: in vivo, Prodenia litura; settings: after 48 hours, 25°C
Method: (A) An emulsifiable concentrate prepared as described in Formulation Example 1 was diluted with water to a predetermined concentration and then cabbage leaves were dipped into the dilute solution and dried in air and placed in a 60 ml volume cup made of vinyl chloride resin. 3rd-instar larvae of tobacco cutworm were put in each cup and maintained at 25°C. After 48 hours, percent mortality was assessed. The test was replicated 3 times for each compound using 30 insects in each test.
(B) An emulsifiable concentrate prepared as described in Formulation Example 3 was diluted with water to a predetermined concentration and then cabbage leaves were dipped into the dilute solution and dried in air and placed in a 60 ml volume cup made of vinyl chloride resin. 3rd-instar larvae of tobacco cutworm were put in each cup and maintained at 25°C. After 48 hours, percent mortality was assessed. The test was replicated 3 times for each compound using 30 insects in each test.

Tea = assay: Phytotoxicity on various crops; assay type: in vivo; design: key: Symbol — indicates that no toxicity was observed; settings: 500 ppm sprayed; checked visually after 10 days
Method: (§1) An emulsifiable concentrate prepared as described in Formulation Example 2 was diluted with water to a concentration of 500 ppm based on the effective ingredient and sprayed sufficiently using a spray-gun onto various test plants. The plants were kept in a green house. After 10 days from the application phytotoxicity was checked visually. The test was replicated 3 times for each compound.

Cucumber = assay: Phytotoxicity on various crops; assay type: in vivo; design: key: Symbol — indicates that no toxicity was observed; settings: 500 ppm sprayed; checked visually after 10 days
Method: as §1

Green Pepper = assay: Phytotoxicity on various crops; assay type: in vivo; design: key: Symbol — indicates that no toxicity was observed; settings: 500 ppm sprayed; checked visually after 10 days
Method: as §1

Cabbage = assay: Phytotoxicity on various crops; assay type: in vivo; design: key: Symbol — indicates that no toxicity was observed; settings: 500 ppm sprayed; checked visually after 10 days
Method: as §1

Kidney Bean = assay: Phytotoxicity on various crops; assay type: in vivo; design: key: Symbol — indicates that no toxicity was observed; settings: 500 ppm sprayed; checked visually after 10 days
Method: as §1

Beet = assay: Phytotoxicity on various crops; assay type: in vivo; design: key: Symbol — indicates that no toxicity was observed; settings: 500 ppm sprayed; checked visually after 10 days
Method: as §1

Apple = assay: Phytotoxicity on various crops; assay type: in vivo; design: key: Symbol — indicates that no toxicity was observed; settings: 500 ppm sprayed; checked visually after 10 days
Method: as §1

Cotton = assay: Phytotoxicity on various crops; assay type: in vivo; design: key: Symbol — indicates that no toxicity was observed; settings: 500 ppm sprayed; checked visually after 10 days
Method: as §1

Tomato = assay: Phytotoxicity on various crops; assay type: in vivo; design: key: Symbol — indicates that no toxicity was observed; settings: 500 ppm sprayed; checked visually after 10 days
Method: as §1

egg plant = assay: Phytotoxicity on various crops; assay type: in vivo; design: key: Symbol — indicates that no toxicity was observed; settings: 500 ppm sprayed; checked visually after 10 days
Method: as §1

Rice = assay: Phytotoxicity on various crops; assay type: in vivo; design: key: Symbol — indicates that no toxicity was observed; settings: 500 ppm sprayed; checked visually after 10 days
Method: as §1

tobacco cutworm [2] = assay: Long-lasting insecticidal effect on tobacco cutworm (sprayed cabbage plantlet); assay type: in vivo, Prodenia litura; settings: Table 5, concentration 500 (unit not given), mortality after 48 hours
Method: (§2) (A) An emulsifiable concentrate prepared as described in Formulation Example 2 was diluted with water to a predetermined concentration and sprayed onto a cabbage plantlet in a flower pot of 15 cm in diameter using a spray-gun sufficiently and the tests plants were placed in a green house. The leaves of the plants were cut off on the 3rd, 5th, 7th, 10th and 15th day and placed in a 60 ml volume cup and 3rd-instar larvae of tobacco cutworm were put in each cup. The cups were kept in an incubator (25°C). After 48 hours, percent mortality was assessed. The tests was replicated 3 times for each compound using 30 insects in each test.
as §2, with “(B) An” for “(A) An”, “Example 3” for “Example 2”, “and 1 5th” for “and 15th”

[3] = Table 1, 500 ppm, wettable powder as Formulation Example 5
[4] = Table 3, 500 ppm, emulsifiable concentrate as Formulation Example 1
[5] = Table 1, 100 ppm, wettable powder as Formulation Example 5
[6] = Table 2, 100 ppm, wettable powder as Formulation Example 7
[7] = Table 4, 100 ppm, emulsifiable concentrate as Formulation Example 3

| SMILES | Percent Mortality (%) (rice stem borer; [3]) | Percent Mortality (%) (tobacco cutworm [1]; [4]) | Phytotoxicity: Tea (Tea) | Phytotoxicity: Cucumber (Cucumber) | Phytotoxicity: Green Pepper (Green Pepper) | Phytotoxicity: Cabbage (Cabbage) | Phytotoxicity: Kidney Bean (Kidney Bean) | Phytotoxicity: Beet (Beet) | Phytotoxicity: Apple (Apple) | Phytotoxicity: Cotton (Cotton) | Phytotoxicity: Tomato (Tomato) | Phytotoxicity: Egg Plant (egg plant) | Phytotoxicity: Rice (Rice) | also measured |
| --- | --- | --- | --- | --- | --- | --- | --- | --- | --- | --- | --- | --- | --- | --- |
| CCCOP(=O)(Oc1ccc2c(c1)OC(C)=CC2(C)C)SCCC (stereo not drawn) [Compound No. 3] | 100% | 100% | — | — | — | — | — | — | — | — | — | — | — |  |
| CCOP(=O)(Oc1ccc2c(c1)OC(C)=CC2(C)C)SCC (stereo not drawn) [Compound No. 8] | 100% | 100% | — | — | — | — | — | — | — | — | — | — | — |  |
| CCCOP(=O)(Oc1ccc2c(c1)OC(C)=CC2(C)C)SC (stereo not drawn) [Compound No. 13] | 100% | 100% | — | — | — | — | — | — | — | — | — | — | — |  |
| CCCSP(=O)(OCC)Oc1ccc2c(c1)OC(CC)=C(C)C2(CC)CC (stereo not drawn) [Compound No. 21, O-ethyl-S-propyl-O-(2,4,4-triethyl-3-methyl-1,2-benzopyran-7-yl)phosphorothioate] | 100% |  | — | — | — | — | — | — | — | — | — | — | — | Percent Mortality (%) (rice stem borer; [5]): 100%; Percent Mortality (%) (rice stem borer; [6]): 100%; Percent Mortality (%) (tobacco cutworm [1]; [7]): 100% |
| CCOP(=S)(Oc1cccc2c1C(C)=CC(C)(C)O2)SC(C)CC (stereo not drawn) [Compound No. 27] |  |  | — | — | — | — | — | — | — | — | — | — | — | Percent Mortality (%) (rice stem borer; [6]): 100%; Percent Mortality (%) (tobacco cutworm [1]; [7]): 100% |
| COP(=O)(OC)C(O)C(Cl)(Cl)Cl (stereo not drawn) [Dipterex, dimethyl 2,2,2-trichloro-1-hydroxyethyl phosphonate, reference compound] | 100% |  |  |  |  |  |  |  |  |  |  |  |  | Percent Mortality (%) (rice stem borer; [5]): 100% |
| CNC(=O)ON=C(C)SC [Lannate, S-methyl N-(methylcarbamoyloxy)thioacetimidate, reference compound] |  |  |  |  |  |  |  |  |  |  |  |  |  | Percent Mortality After Application 3rd Day (tobacco cutworm [2]; leaves cut on 3rd day): 80%; Percent Mortality After Application 5th Day (tobacco cutworm [2]; leaves cut on 5th day): 30%; Percent Mortality After Application 7th Day (tobacco cutworm [2]; leaves cut on 7th day): 7%; Percent Mortality After Application 10th Day (tobacco cutworm [2]; leaves cut on 10th day): 0%; Percent Mortality After Application 15th Day (tobacco cutworm [2]; leaves cut on 15th day): 0% |
| COP(=O)(NC(C)=O)SC (stereo not drawn) [Orthene, O,S-dimethyl acetylphosphoramidothioate, reference compound] |  | 90.0% |  |  |  |  |  |  |  |  |  |  |  |  |
| COP(=S)(OC)Oc1ccc([N+](=O)[O-])c(C)c1 [Sumithion, dimethyl(3-methyl-4-nitrophenyl)thiophosphate, reference compound] |  |  |  |  |  |  |  |  |  |  |  |  |  | Percent Mortality (%) (rice stem borer; Table 2, concentration not given): 100% |
| CCCCOP(=O)(Oc1ccc2c(c1)OC(C)=CC2(C)C)SCCC (stereo not drawn) [compound 4] | 100% | 100% | — | — | — | — | — | — | — | — | — | — | — |  |
| CCOP(=S)(Oc1ccc2c(c1)OC(C)=CC2(C)C)SCC (stereo not drawn) [compound 12] | 100% | 100% | — | — | — | — | — | — | — | — | — | — | — |  |
